Results on 23 compounds are retold here after patent publication US10316017B2, “COT modulators and methods of use thereof” (Gilead Sciences, Inc., priority 2015, dated 2019).

The target of this assay is T1, human Cot catalytic domain (30-397 amino acids) (Homo sapiens, UniProt P41279).
T1 construct: Purified recombinant human Cot catalytic domain (30-397 amino acids) was purchased from Cama Biosciences; purchased Cama Biosciences (so in the source)
T1 sequence (P41279 30-397): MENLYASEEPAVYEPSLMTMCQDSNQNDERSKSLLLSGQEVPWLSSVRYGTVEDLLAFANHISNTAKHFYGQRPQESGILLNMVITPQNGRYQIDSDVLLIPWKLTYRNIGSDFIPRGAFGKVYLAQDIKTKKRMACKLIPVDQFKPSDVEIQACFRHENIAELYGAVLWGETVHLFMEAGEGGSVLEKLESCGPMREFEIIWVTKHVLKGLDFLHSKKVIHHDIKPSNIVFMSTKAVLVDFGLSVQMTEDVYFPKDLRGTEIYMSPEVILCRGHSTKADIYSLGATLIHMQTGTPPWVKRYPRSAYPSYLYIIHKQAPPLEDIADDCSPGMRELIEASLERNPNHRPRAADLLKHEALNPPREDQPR
Put plainly: High Throughput Cot Biochemical Assay (KinEASE TR-FRET). Conditions: Cot KinEASE TR-FRET, 400 μM ATP; read-out: IC50 HTRF. How it is done: Example 61: High Throughput Cot Biochemical Assay
In this assay, Cot-catalyzes the phosphorylation of a XL665-labeled peptide substrate. Europium conjugated phospho-tyrosine specific antibody binds the resulting phosphorylated peptide. […] Purified recombinant human Cot catalytic domain (30-397 amino acids) was purchased from Cama Biosciences. […] The standard 5 μL reaction mixture contained 400 μM ATP, 1 μM STK3 peptide, 5 nM of Cot in reaction buffer (10 mM MOPS, pH 7.0, 0.02% NaN3, 0.5 mg/mL BSA, 10 mM MgOAc, 1 mM DTT, 0.025% NP-40, 1.5% glycerol) and 0.1% DMSO.
For orientation: IC50 means the concentration that inhibits the measured activity by half. As to `N#Cc1cnc2c(Cl)cc(N[C@@H](c3ccc(F)cc3)c3cn(C4CN5CCC4CC5)nn3)cc2c1Nc1ccc(F)c(Cl)c1` (stereo partly drawn) [Example 829, 8-chloro-4-((3-chloro-4-fluorophenyl)amino)-6-(((1S)-(4-fluorophenyl)(1-(quinuclidin-3-yl)-1H-1,2,3-triazol-4-yl)methyl)amino)quinoline-3-carbonitrile], the IC50 turned out to be 0.006 µM.

For `CC(C)(C)OC(=O)N1CCC(n2cc([C@@H](Nc3cc(Cl)c4ncc(C#N)c(Nc5ccc(F)c(Cl)c5)c4c3)c3ccc(F)cc3)nn2)CC1` [Example 830, tert-butyl (S)-4-(4-(((8-chloro-4-((3-chloro-4-fluorophenyl)amino)-3-cyanoquinolin-6-yl)amino)(4-fluorophenyl)methyl)-1H-1,2,3-triazol-1-yl)piperidine-1-carboxylate], the 50% inhibitory concentration (IC50) is 0.363 µM.

On to `CCN1CCC(n2cc(C(Nc3ccc4ncc(C#N)c(Nc5ccc(F)c(Cl)c5)c4c3)c3ccc(F)cc3)nn2)CC1` (centres unmarked) [Example 832, 4-((3-chloro-4-fluorophenyl)amino)-6-(((1-(1-ethylpiperidin-4-yl)-1H-1,2,3-triazol-4-yl)(4-fluorophenyl)methyl)amino) quinoline-3-carbonitrile], for which the IC50 stood at 0.009 µM.

As for `CCN1CCC(n2cc(C(Nc3cc(Br)c4ncc(C#N)c(Nc5ccc(F)c(Cl)c5)c4c3)c3ccc(F)cc3)nn2)CC1` (centres unmarked) [Example 833, 8-bromo-4-((3-chloro-4-fluorophenyl)amino)-6-(((1-(1-ethylpiperidin-4-yl)-1H-1,2,3-triazol-4-yl)(4-fluorophenyl)methyl)amino) quinoline-3-carbonitrile], the 50% inhibitory concentration (IC50) worked out at 0.007 µM.

Consider `N#Cc1cnc2ccc(NC(c3ccc(F)cc3)c3cn(C4CCN(C(=O)OCc5ccccc5)CC4)nn3)cc2c1Nc1ccc(F)c(Cl)c1` (centres unmarked) [Example 834, benzyl 4-(4-(((4-((3-chloro-4-fluorophenyl)amino)-3-cyanoquinolin-6-yl)amino)(4-fluorophenyl)methyl)-1H-1,2,3-triazol-1-yl)piperidine-1-carboxylate], for which the 50% inhibitory concentration (IC50) was determined as 0.756 µM.

Turning to `CCN1CCC(n2cc(C(Nc3cc(Cl)c4ncc(C#N)c(Nc5ccc(F)c(Cl)c5)c4c3)c3ccc(F)cc3)nn2)CC1(C)C` (centres unmarked) [Example 838, 8-chloro-4-((3-chloro-4-fluorophenyl)amino)-6-(((1-(1-ethyl-2,2-dimethylpiperidin-4-yl)-1H-1,2,3-triazol-4-yl)(4-fluorophenyl)methyl)amino) quinoline-3-carbonitrile], the IC50 was 0.032 µM.

In the case of `CC1(C)CC(n2cc(C(Nc3cc(Cl)c4ncc(C#N)c(Nc5ccc(F)c(Cl)c5)c4c3)c3ccc(F)cc3)nn2)CCN1` (centres unmarked) [Example 839, 8-chloro-4-((3-chloro-4-fluorophenyl)amino)-6-(((1-(2,2-dimethylpiperidin-4-yl)-1H-1,2,3-triazol-4-yl)(4-fluorophenyl)methyl)amino) quinoline-3-carbonitrile], the concentration for half-maximal inhibition (IC50) came out at 0.024 µM.

For `CC1(C)CNCCC1n1cc(C(Nc2cc(Cl)c3ncc(C#N)c(Nc4ccc(F)c(Cl)c4)c3c2)c2ccc(F)cc2)nn1` (centres unmarked) [Example 840, 8-chloro-4-((3-chloro-4-fluorophenyl)amino)-6-(((1-(3,3-dimethylpiperidin-4-yl)-1H-1,2,3-triazol-4-yl)(4-fluorophenyl)methyl)amino) quinoline-3-carbonitrile], the IC50 amounted to 0.084 µM.

As to `N#Cc1cnc2c(Cl)cc(NC(c3ccc(F)cc3)c3cn(C4CCOCC4)nn3)cc2c1Nc1ccc(F)c(Cl)c1` (centres unmarked) [Example 843, 8-chloro-4-((3-chloro-4-fluorophenyl)amino)-6-(((4-fluorophenyl)(1-(tetrahydro-2H-pyran-4-yl)-1H-1,2,3-triazol-4-yl)methyl)amino)quinoline-3-carbonitrile], the half-inhibitory concentration (IC50) worked out at 0.058 µM.

As for `CC(=O)N1CCC(n2cc(C(Nc3cc(Cl)c4ncc(C#N)c(Nc5ccc(F)c(Cl)c5)c4c3)c3ccc(F)cc3)nn2)CC1` (centres unmarked) [Example 844, 6-(((1-(1-acetylpiperidin-4-yl)-1H-1,2,3-triazol-4-yl)(4-fluorophenyl)methyl)amino)-8-chloro-4-((3-chloro-4-fluorophenyl)amino)quinoline-3-carbonitrile], the IC50 is 0.048 µM.

Take `CS(=O)(=O)N1CCC(n2cc(C(Nc3cc(Cl)c4ncc(C#N)c(Nc5ccc(F)c(Cl)c5)c4c3)c3ccc(F)cc3)nn2)CC1` (centres unmarked) [Example 845, 8-chloro-4-((3-chloro-4-fluorophenyl)amino)-6-(((4-fluorophenyl)(1-(1-(methylsulfonyl)piperidin-4-yl)-1H-1,2,3-triazol-4-yl)methyl)amino)quinoline-3-carbonitrile]: the IC50 amounted to 0.099 µM.

In the case of `Cn1ccc(C(Nc2cc(Cl)c3ncc(C#N)c(Nc4ccc(F)c(Cl)c4)c3c2)c2ccc(F)cc2)n1` (centres unmarked) [Example 846, 8-chloro-4-((3-chloro-4-fluorophenyl)amino)-6-(((4-fluorophenyl)(1-methy-1-1H-pyrazol-3-yl)methyl)amino)quinoline-3-carbonitrile], the IC50 was more than 10 µM.

As for `N#Cc1cnc2c(Cl)cc(N[C@H](c3ccc(F)cc3)c3cn(C4CCNCC4)nn3)cc2c1Nc1ccc(F)c(Cl)c1` [Example 850, (R)-8-chloro-4-((3-chloro-4-fluorophenyl)amino)-6-(((4-fluorophenyl)(1-(piperidin-4-yl)-1H-1,2,3-triazol-4-yl)methyl)amino)quinoline-3-carbonitrile], the concentration for half-maximal inhibition (IC50) worked out at 0.926 µM.

For the compound `N#Cc1cnc2c(Cl)cc(N[C@@H](c3ccc(F)cc3)c3cn(C4CCNCC4)nn3)cc2c1Nc1ccc(F)c(Cl)c1` [Example 851, (S)-8-chloro-4-((3-chloro-4-fluorophenyl)amino)-6-(((4-fluorophenyl)(1-(piperidin-4-yl)-1H-1,2,3-triazol-4-yl)methyl)amino)quinoline-3-carbonitrile], the IC50 was 0.007 µM.

On to `Cn1cc(C(Nc2cc(Cl)c3ncc(C#N)c(Nc4ccc(F)c(Cl)c4)c3c2)c2cccc(CN3CCCC3)c2)nn1` (centres unmarked) [Example 852, 8-chloro-4-((3-chloro-4-fluorophenyl)amino)-6-(((1-methyl-1H-1,2,3-triazol-4-yl)(3-(pyrrolidin-1-ylmethyl)phenyl)methyl)amino)quinoline-3-carbonitrile], for which the IC50 is 0.022 µM.

With `N#Cc1cnc2c(Cl)cc(NC(c3ccc(F)cc3)c3cn(C4CCN(C(=O)OCc5ccccc5)CC4)nn3)cc2c1Nc1ccc(F)c(Cl)c1` (centres unmarked) [Example 855, benzyl 4-(4-(((8-chloro-4-((3-chloro-4-fluorophenyl)amino)-3-cyanoquinolin-6-yl)amino)(4-fluorophenyl)methyl)-1H-1,2,3-triazol-1-yl)piperidine-1-carboxylate], the half-maximal inhibitory concentration (IC50) was determined as 2.4 µM.

On to `CCN1CCC(n2cc([C@H](Nc3cc(Cl)c4ncc(C#N)c(Nc5ccc(F)c(Cl)c5)c4c3)c3ccc(Cl)cc3)nn2)CC1` [Example 856, (R)-8-chloro-4-((3-chloro-4-fluorophenyl)amino)-6-(((4-chlorophenyl)(1-(1-ethylpiperidin-4-yl)-1H-1,2,3-triazol-4-yl)methyl)amino)quinoline-3-carbonitrile], for which the IC50 was found to be 0.86 µM.

For the compound `N#Cc1cnc2c(Cl)cc(N[C@H](c3ccc(Cl)cc3)c3cn(C4CCNCC4)nn3)cc2c1Nc1ccc(F)c(Cl)c1` [Example 857, (R)-8-chloro-4-((3-chloro-4-fluorophenyl)amino)-6-(((4-chlorophenyl)(1-(piperidin-4-yl)-1H-1,2,3-triazol-4-yl)methyl)amino)quinoline-3-carbonitrile], the half-inhibitory concentration (IC50) came to 1.34 µM.

For the compound `N#Cc1cnc2c(Cl)cc(NC(c3ccc(F)cc3)c3cccnc3)cc2c1Nc1ccc(F)c(Cl)c1` (centres unmarked) [Example 862, 8-chloro-4-((3-chloro-4-fluorophenyl)amino)-6-(((4-fluorophenyl)(pyridin-3-yl)methyl)amino)quinoline-3-carbonitrile], the half-inhibitory concentration (IC50) was 3.96 µM.

For `N#Cc1cnc2c(Cl)cc(NC(c3ccc(F)cc3)c3cn([C@@H]4CCNC4)nn3)cc2c1Nc1ccc(F)c(Cl)c1` (stereo partly drawn) [Example 864, 8-chloro-4-((3-chloro-4-fluorophenyl)amino)-6-(((4-fluorophenyl)(1-((R)-pyrrolidin-3-yl)-1H-1,2,3-triazol-4-yl)methyl)amino)quinoline-3-carbonitrile], the IC50 worked out at 0.022 µM.

For the compound `CCN1CC[C@@H](n2cc(C(Nc3cc(Cl)c4ncc(C#N)c(Nc5ccc(F)c(Cl)c5)c4c3)c3ccc(F)cc3)nn2)C1` (stereo partly drawn) [Example 865, 8-chloro-4-((3-chloro-4-fluorophenyl)amino)-6-(((1-((R)-1-ethylpyrrolidin-3-yl)-1H-1,2,3-triazol-4-yl)(4-fluorophenyl)methyl)amino) quinoline-3-carbonitrile], the IC50 came out at 0.046 µM.

`N#Cc1cnc2c(Cl)cc(NC(c3ccc(Cl)cc3)c3cn([C@@H]4CCN(C(=O)OCc5ccccc5)C4)nn3)cc2c1Nc1ccc(F)c(Cl)c1` (stereo partly drawn) [Example 866, benzyl (3R)-3-(4-(((8-chloro-4-((3-chloro-4-fluorophenyl)amino)-3-cyanoquinolin-6-yl)amino)(4-chlorophenyl)methyl)-1H-1,2,3-triazol-1-yl)pyrrolidine-1-carboxylate]: the half-inhibitory concentration (IC50) stood at 2.1 µM.

For the compound `N#Cc1cnc2c(Cl)cc(NC(c3ccc(Cl)cc3)c3cn([C@@H]4CCNC4)nn3)cc2c1Nc1ccc(F)c(Cl)c1` (stereo partly drawn) [Example 867, 8-chloro-4-((3-chloro-4-fluorophenyl)amino)-6-(((4-chlorophenyl)(1-((R)-pyrrolidin-3-yl)-1H-1,2,3-triazol-4-yl)methyl)amino)quinoline-3-carbonitrile], the IC50 worked out at 0.046 µM.
